From patent US20080176952A1, “Management of Ophthalmologic Disorders, Including Macular Degeneration” (priority 2004, published 2008)
Each block holds one molecule with its values, some of them ahead of it.

Key:
[1] = test system: mRPE65 / IMH activity in RPE membranes; experiment: Effect of 11-cis-retinol mediated depalmitoylation of mRPE65 on generation of 11-cis-retinol in RPE membranes; format: biochemical, bovine; settings: RPE membranes pretreated with 10 μM, then UV and vitamin A
Experimental: Effect of 11-cis-retinol mediated depalmitoylation of mRPE65 on the generation of 11-cis-retinol: To 1 mL of buffered suspension of RPE membranes (100 mM Tris pH 8.0, 80 μg of protein) was added 10 μM of 11-cis-retinol and incubated at room temp. for 45 min. A control reaction mixture without 11-cis-retinol was also incubated at room temperature for 45 min. At the end of the 45 min incubation, the reaction mixtures were exposed to UV light (354 nm) for 10 min to destroy the 11-cis-retinoids. All-trains-retinol [11-12-^3H2] (0.1 μM) was then added to the reaction mixtures (100 mM Tris pH 8.0, 80 μg of RPE protein 5% BSA and 0.1 μM all-trans-retinol [11-12-^3H2], and incubated at 37° C. 100 μL aliquot of the reactions were quenched after 0, 5, 10, 15, 20, 30, 45, 60, 90, 120 and 150 min by the addition of 500 μL methanol after which 100 μL of H2O was added, and 500 μl hexane (containing butylated hydroxy toluene at 1 mg/mL) was added to effect extraction of the retinoids. The retinoids were analyzed as previously described (Winston and Rando 1998). The amount of 11-cis-retinol formed was used as a measurement of IMH activity. All experiments were performed in triplicate and the average values of these measurements were used for analysis. […]

tLRAT [2] = target: T1, tLRAT (Homo sapiens, UniProt O95237); experiment: Isomeric preference of the mRPE65/tLRAT mediated esterification of retinols; format: biochemical; settings: compared to vitamin A; 0.02 μM mRPE65, 5 μM tLRAT
T1 construct: This form of LRAT has the two N and C-terminal transmembrane domains of LRAT truncated; made in house
T1 sequence (O95237 31-196 limits assumed): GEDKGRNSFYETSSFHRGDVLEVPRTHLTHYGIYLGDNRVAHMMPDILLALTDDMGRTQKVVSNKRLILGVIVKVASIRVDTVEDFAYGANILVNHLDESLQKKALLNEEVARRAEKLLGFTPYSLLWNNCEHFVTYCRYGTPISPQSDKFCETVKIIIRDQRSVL
Experimental: Isomeric preference of the mRPE65/tLRAT mediated esterification of retinols: The effect of mRPE65 on the processing of 11-cis- and all-trans-retinols was determined by monitoring the formation of tLRAT catalyzed retinyl esters from added all-trans-retinol [11,12-^3H2], 11-cis-retinol [15-^3H] and mRPE65. The reaction mixture (volume 0.1 mL) contains 100 mM Tris (pH 8.4), 5 μM of tLRAT 0.3% CHAPS, 1 mM dithiothreitol and 0.2 μM of all-trans-retinol [11,12-^3H2] or 11-cis-retinol [15-^3H] and mRPE65 ([…] 200 μM/0.4% DPPC/BSA was incubated for 10 min at room temperature. After 10 min the reaction was quenched with 500 μL methanol, 100 μL of water and 500 μL of hexane. The amount of retinyl palmitate formed, as determined by normal phase-HPLC, was used as a measure of activity. Each experiment was done in triplicate, and the data points used are an average of these three points. The standard error was presented as error bars.
11-cis-retinol, the direct product of IMH action, is also esterified (FIG. 12A). […] (2) all-trans-retinol (2 μM) and mRPE65 (0.02 μM). (3) 11-cis-retinol (2 μM) and DPPC/BSA (250 μM/0.4%). (4) all-trans-retinol (2 μM) and DPPC/BSA (250 μM/0.4%). All reaction mixtures contain 100 mM Tris pH 8.4, 1 mM dithiothreitol, 1 mM EDTA and 5 μM tLRAT.

tLRAT [3] = target: T1, tLRAT; settings: comparison value; no observable turnover under the same conditions; read-out: KM as acyl donor in the LRAT reaction; cited from earlier work
[4] = test system: 11-cis-retinol biosynthesis (IMH activity) in retinal pigment epithelial membrane system; experiment: Effect on 11-cis-retinol biosynthesis (IMH activity) in RPE membranes; format: biochemical, bovine; settings: membranes pre-incubated with vitamin A before inhibitor; 60 μM; data not shown
Experimental: A control reaction mixture without any inhibitor was also incubated at room temperature for 15 min. At the end of the min incubation, all-trans-retinol [11-12-^3H2] (0.2 μM) was added to the reaction mixtures (100 mM Tris pH 8.0, […] of RPE protein, 0.2% BSA 100 μM of DPPC, 1 mM of DTT and 0.2 μM all-trans-retinol [11-12-^3H2]) and incubated at room temperature for 30 min. At the end of this 30 minutes of incubation, an aliquot of the reactions were quenched to verify the equal addition of all-trans-retinol [11,12-^3H2] and the effect of these inhibitors on LRAT. After this the control reaction mixture was incubated with atRA (60 & 6 μM), 13cRA (60 & 6 μM) or 4-HPR (60 & 6 μM) for 15 min. Now all the reaction mixtures were incubated with 30 μM of apo-rCRALBP (100 mM Tris pH 8.0, 7.7 μg of RPE protein, 0.2% BSA 100 μM of DPPC, 1 mM of DTT 30 μM apo-rCRALBP and 0.2 μM all-trans-retinol [11-12-^3H2]) at 37° C. for 30 minutes. At the end of this incubation period the 200 μL reaction mixture was quenched by the addition of 750 μL ice cold methanol after which 100 μL of 1M sodium chloride solution was added, and 500 μl hexane (containing butylated hydroxy toluene at 1 mg/mL) was added to effect extraction of the retinoids. The retinoids were analyzed as previously described (27). The amount of 11-cis-retinol formed was used as a measurement of IMH activity. All experiments were performed in triplicate and the average values of these measurements were used for analysis.
A control reaction mixture without any inhibitor was also incubated at room temperature for 15 min. At the end of the min incubation, all-trans-retinol [11-12-^3H2] (0.2 μM) was added to the reaction mixtures (100 mM Tris pH 8.0, 76.7 μg of RPE protein, 0.2% BSA 100 μM of DPPC, 1 mM of DTT and 0.2 μM all-trans-retinol [11-12-^3H2]) and incubated at room temperature for 30 min. […] The retinoids were analyzed as previously described (27). […]

RPE65 = target: T2, RPE65 (Bos taurus, UniProt Q28175); experiment: Competitive binding with 3H-all-trans-retinyl palmitate to RPE65 (buffer exchange); set-up: species or system bovine; settings: 6 μM retinoic acid, 0.5 μM RPE65, 0.65 μM 3H-all-trans-retinyl palmitate
T2 construct: Frozen bovine eyecups devoid of retinas were purchased from W. L. Lawson Co; tissue W. L. Lawson Co; host or cells: bovine eyecups (retinal pigment epithelium)
Experimental: Competitive binding of retinoic acid (all-trans and 13-cis) and all-trans-retinyl palmitate to RPE65: Buffer exchange experiments were performed to investigate the abilities of the retinoic acids (all-trans and 13-cis) to displace all-trans-retinyl palmitate binding from RPE65. To RPE65 (0.5 μM) (PBS, 1% CHAPS, pH 7.4), was added 6 μM of retinoic acid (all-trans and 13-cis) and incubated at 4° C. for 30 min. A control sample of RPE65 was incubated minus retinoic acids at 4° C. for 30 min. At the end of this incubation, the samples were incubated for 30 min with ^3H-all-trans-retinyl palmitate (0.65 ∥M, 20.31. Ci/mmol). At the end of this incubation period the buffer (PBS-1% CHAPS) was exchanged 10^4 fold with a Centricon 30K MWCO filter. The sample retained and the buffer flow through were counted on a liquid scintillation counter, to measure the amount of ^3H-all-trans-retinyl palmitate retained.
Competitive binding of retinoic acid (all-trans and 13-cis) and all-trans-retinyl palmitate to RPE65: Buffer exchange experiments were performed to investigate the abilities of the retinoic acids (all-trans and 13-cis) to displace all-trans-retinyl palmitate binding from RPE65. […] The sample retained and the buffer flow through were counted on a liquid scintillation counter, to measure the amount of ^3H-all-trans-retinyl palmitate retained. […]

T2 sequence (Q28175 whole entry): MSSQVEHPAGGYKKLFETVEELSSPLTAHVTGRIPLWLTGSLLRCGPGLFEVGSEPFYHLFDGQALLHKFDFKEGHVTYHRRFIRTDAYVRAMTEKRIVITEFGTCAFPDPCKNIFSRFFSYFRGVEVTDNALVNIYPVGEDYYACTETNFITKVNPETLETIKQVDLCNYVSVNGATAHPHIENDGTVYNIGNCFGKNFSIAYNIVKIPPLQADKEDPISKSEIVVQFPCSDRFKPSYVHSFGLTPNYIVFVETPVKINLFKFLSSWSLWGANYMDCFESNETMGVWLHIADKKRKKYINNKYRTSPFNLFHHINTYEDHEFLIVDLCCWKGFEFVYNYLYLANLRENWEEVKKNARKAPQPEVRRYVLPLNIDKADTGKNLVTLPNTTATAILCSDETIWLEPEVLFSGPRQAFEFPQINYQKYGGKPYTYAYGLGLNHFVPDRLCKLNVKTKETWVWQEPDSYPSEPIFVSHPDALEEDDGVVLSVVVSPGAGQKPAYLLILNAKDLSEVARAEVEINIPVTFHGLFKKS

substrate preference in tLRAT/mRPE65 mediated esterification (palmitoylation) (tLRAT [2]): superior substrate
Compound: CC1=C(/C=C/C(C)=C/C=C\C(C)=C\CO)C(C)(C)CCC1 [11-cis-retinol]
effect of pretreatment on 11-cis-retinol synthesis [1]: distinct lag period before product synthesis occurs

Compound: CCCCCCCCCCCCCCCC(=O)OC[C@H](COP(=O)([O-])OCC[N+](C)(C)C)OC(=O)CCCCCCCCCCCCCCC [DPPC, dipalamitoyl phosphatidylcholine]
Km (tLRAT [3]): 1.4 µM

competition with 3H-all-trans-retinyl palmitate binding to RPE65 (RPE65): competes with the binding
Compound: CC1=C(/C=C/C(C)=C/C=C/C(C)=C/C(=O)O)C(C)(C)CCC1 [all-trans-retinoic acid]
inhibition of 11-cis-retinol formation [4]: not susceptible to inhibition
